According to patent US8822542B2, “Isoketal scavengers and mitigation of disorders involving oxidative injury” (Vanderbilt University, priority 2005, dated 2014):
“Also recorded” adds a separate entry of the source.

Key:
[1] = Second order rate of pyrrole formation with the model γ-ketoaldehyde 4-oxopentanal; assay type: biochemical
Experimental: The present inventors determined the approximate second order rate constants of different amines for pyrrole formation with […], a γ-ketoaldehyde.
These compounds are tested for the rate of pyrrole formation when incubated with the γ-ketoaldehyde, 4-oxopentanal. […] Ehrlich reagent may be used to detect levels of pyrroles.
All rates are shown relative to N-α-acetyl-lysine.

[2] = target: human cardiac Na channel (hH1, or SCN5A) (Homo sapiens, UniProt Q14524); experiment: Whole-cell Na current recording, wild-type hH1 expressed in HEK-293 cells; conditions: HEK-293; t-BHP 1 mM, Iso-K 10 μM, flecainide 1 μM
Chain of human cardiac Na channel (hH1, or SCN5A) (Q14524 whole entry): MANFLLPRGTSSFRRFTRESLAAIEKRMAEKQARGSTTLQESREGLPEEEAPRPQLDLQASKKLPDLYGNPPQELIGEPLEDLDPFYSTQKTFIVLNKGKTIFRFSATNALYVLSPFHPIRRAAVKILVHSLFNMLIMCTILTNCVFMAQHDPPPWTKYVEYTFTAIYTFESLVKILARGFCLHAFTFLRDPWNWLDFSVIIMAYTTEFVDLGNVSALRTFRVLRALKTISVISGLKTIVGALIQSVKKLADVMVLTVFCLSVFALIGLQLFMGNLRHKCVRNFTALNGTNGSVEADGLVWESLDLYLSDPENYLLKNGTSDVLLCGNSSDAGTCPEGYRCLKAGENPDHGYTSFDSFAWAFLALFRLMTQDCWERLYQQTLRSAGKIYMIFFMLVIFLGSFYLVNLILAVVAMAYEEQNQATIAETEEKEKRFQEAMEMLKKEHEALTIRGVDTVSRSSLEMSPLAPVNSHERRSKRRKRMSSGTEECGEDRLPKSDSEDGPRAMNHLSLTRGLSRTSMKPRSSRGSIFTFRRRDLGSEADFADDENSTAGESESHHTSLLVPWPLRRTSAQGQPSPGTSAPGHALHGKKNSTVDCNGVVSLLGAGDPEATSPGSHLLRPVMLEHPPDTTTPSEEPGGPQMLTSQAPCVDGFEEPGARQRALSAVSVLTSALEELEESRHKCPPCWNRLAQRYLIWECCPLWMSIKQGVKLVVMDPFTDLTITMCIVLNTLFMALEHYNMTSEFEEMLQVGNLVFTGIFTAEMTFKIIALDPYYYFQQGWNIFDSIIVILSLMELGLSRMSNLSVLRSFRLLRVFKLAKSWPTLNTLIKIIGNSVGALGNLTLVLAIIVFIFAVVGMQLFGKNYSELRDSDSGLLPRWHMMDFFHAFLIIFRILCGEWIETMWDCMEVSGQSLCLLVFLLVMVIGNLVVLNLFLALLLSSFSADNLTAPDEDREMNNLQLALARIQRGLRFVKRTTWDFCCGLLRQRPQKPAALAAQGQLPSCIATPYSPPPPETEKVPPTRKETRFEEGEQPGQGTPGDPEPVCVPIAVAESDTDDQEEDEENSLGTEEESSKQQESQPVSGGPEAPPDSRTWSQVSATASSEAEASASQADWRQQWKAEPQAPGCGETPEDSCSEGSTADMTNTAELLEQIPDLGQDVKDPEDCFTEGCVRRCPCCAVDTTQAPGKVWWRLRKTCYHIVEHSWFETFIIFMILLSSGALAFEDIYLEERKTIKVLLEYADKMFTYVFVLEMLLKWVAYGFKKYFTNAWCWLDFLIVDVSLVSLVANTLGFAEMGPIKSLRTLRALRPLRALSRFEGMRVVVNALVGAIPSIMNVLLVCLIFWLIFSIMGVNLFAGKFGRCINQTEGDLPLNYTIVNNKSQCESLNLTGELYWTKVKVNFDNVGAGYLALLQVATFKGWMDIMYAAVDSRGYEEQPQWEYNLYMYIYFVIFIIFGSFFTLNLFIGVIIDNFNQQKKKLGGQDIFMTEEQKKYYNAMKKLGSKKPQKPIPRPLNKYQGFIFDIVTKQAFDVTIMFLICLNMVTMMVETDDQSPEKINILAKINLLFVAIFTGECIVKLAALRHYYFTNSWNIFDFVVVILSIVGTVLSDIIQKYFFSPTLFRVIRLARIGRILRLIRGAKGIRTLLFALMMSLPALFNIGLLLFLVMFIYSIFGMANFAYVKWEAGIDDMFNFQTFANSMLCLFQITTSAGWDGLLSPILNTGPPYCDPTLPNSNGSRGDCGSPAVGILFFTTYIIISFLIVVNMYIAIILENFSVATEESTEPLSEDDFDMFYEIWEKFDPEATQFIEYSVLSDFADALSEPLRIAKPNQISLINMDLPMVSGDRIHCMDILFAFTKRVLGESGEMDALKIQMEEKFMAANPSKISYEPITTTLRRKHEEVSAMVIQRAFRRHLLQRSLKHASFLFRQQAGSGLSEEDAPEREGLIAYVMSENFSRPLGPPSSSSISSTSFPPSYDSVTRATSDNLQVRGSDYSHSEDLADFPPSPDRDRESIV

[3] = system: patients convalescing from myocardial infarction; conditions: in vivo; cited from earlier work
[4] = system: plasma concentrations of F2-IsoPs; experiment: Porcine model of global ischemia/reperfusion (cardiac arrest and CPR), plasma F2-IsoPs; assay type: in vivo; conditions: 30 mg/kg intravenous, single dose during CPR
Experimental: The present inventors chose antioxidants to test in the models of AD that we have found effective in suppressing oxidative stress in other animal models of oxidative injury. One model of oxidative injury is the porcine model of global ischemia/reperfusion resulting from induction of cardiac arrest for 3 mins followed by cardiopulmonary resuscitation (CPR). Shown in FIG. 25 are results using this model. As shown, cardiac arrest followed by CPR induced a dramatic increase in plasma concentrations of F2-IsoPs. […] This study involved the administration of a single dose of Tempol. Shown in FIG. 26 is data taken from a report from Ortiz, et. al. in which they assessed the ability of chronic oral administration of TEMPOL (1 mM in the drinking water) to suppress the increase in F2-IsoPs induced by chronic IV infusion of angiotensin II. […] Tempol is one of the antioxidants of the present invention.

[5] = system: F2-IsoPs in renal vein plasma; conditions: 1 mM in the drinking water, chronic oral; cited from earlier work
20S proteasome [6] = experiment: Degradation of adducted ovalbumin by purified 20S proteasome; assay type: biochemical
[7] = Oxidation of arachidonic acid in the presence of scavenger and 10 molar excess of lysine; assay type: biochemical; conditions: for levels of Lys-lactam adduct formed: compared to vehicle
Source text: The amounts of each of these adducts to the amount of γ KA adduct formed were normalized. […] Because cardiac ion channels are embedded in cellular membranes, the ability to penetrate into membranes is critical.

[8] = system: transgenic humanized apoE4 mice (hApoE4); experiment: Water radial arm maze in transgenic humanized apoE4 mice; assay type: in vivo, mouse; design: dose or concentration left out as unconfirmed; conditions: water containing SA, six months, tested at 12 months of age
Source text: Starting at six months of age, wild-type (C57) and transgenic humanized apoE4 mice (hApoE4) were given either standard water or water containing […] SA (+SA) as their only source of drinking water. At this time, animals were also switched from standard chow diets to either a sufficient amino acid based diet (suff) or an amino-acid based diet insufficient in choline, methionine, and folate, and enriched in homocysteine (HC). All animals were fed diets and drinking water for six months (to 12 months of age) prior to testing. The purpose of the HC diet was to attempt to exacerbate oxidative stress in these animals. Because breeding and behavioral testing is extremely time consuming, it was not possible to have sufficient animals for each group in a single cohort and still perform adequate behavioral testing. Therefore two separate cohorts of animals (A & B) were raised and tested about two month apart. […]
The water radial arm maze test requires a mouse to find a hidden platform placed in one of six maze arms. […] If the mouse enters an arm without the platform, an error is scored and the mouse is dragged by the tail back to the start arm and released. […] If a mouse swims in the central area for 12 sec without picking an arm, an error is also scored and the animal is dragged back to the start arm and released. […]

[9] = Lipophilicity / penetration into nonpolar environments; assay type: physicochemical
HepG2 cell = experiment: Cellular viability of HepG2 cells exposed to hydrogen peroxide; assay type: cell-based
[10] = system: mice subjected to ligation of the left anterior coronary artery; experiment: Myocardial infarction by coronary ligation in mice; assay type: in vivo, mouse
Source text: (§1) In a series of experiments, the present inventors have tested the effect of the γ KA scavenger salicylamine (SA) in mice subjected to ligation of the left anterior coronary artery resulting in a myocardial infarction. All experiments were done in blinded fashion regarding the treatment group (SA versus placebo (water)). Mice received drinking water containing either SA (1 g/l) or no drug for three days prior to coronary ligation and for 7 days afterwards.
The present inventors examined the effect of SA treatment on Lys-lactam protein adduct formation. Mouse hearts were harvested 7 days after coronary ligation and the atria and the right ventricular free wall were removed. The remainder of each heart (LV free wall and septum) was then cut into two, roughly equal tissue specimens of ˜50 mg wet weight: The anterior-apical part contained the infarct and the peri-infarct border zone (MI+borderzone), and the posterior-basal part was unaffected (Remote). The tissue content of Lys-lactam protein adducts was quantified using our LC MS^2 based analytical technique.

[11] = SA in the drinking water of mice: concentrations and tolerability; assay type: in vivo, C57BL6 mice
Experimental: as §1
SA was tested to determine whether it could be used in vivo. 1 g/L or 5 g/L salicylamine was added to the drinking water of C57BL6 mice for 5 days and then harvested plasma and liver from the animals. SA was measured by monitoring absorption at 259 nm after derivatization with 1,1′-thiocarbonyldiimidazole.

progression of AD = conditions: 2000 I.U./d; cited from earlier work
[12] = system: plasma concentrations of F2-IsoPs; experiment: Vitamin E supplementation, plasma F2-IsoPs in subjects with hypercholesterolemia; assay type: in vivo, human
Experimental: The use of antioxidants to suppress oxidative injury: An important aspect of antioxidant clinical trials that has not received sufficient attention until recently, is the scientific rational for the choice of a particular antioxidant to test, the dose to test, and the duration of treatment. […] This was a key finding because the literature is abound with studies in which have vitamin E was administered for less than 10 weeks to determine its effects on some pathologic process. […] This is an important finding because many studies of the effects of vitamin E have used doses of 400 I.U./d and observed no benefit.

20S proteasome [13] = target: 20S proteasome (Homo sapiens, UniProt P28074); experiment: Inhibition of 20S proteasome chymotrypsin-like activity (LLVY-amc hydrolysis); assay type: biochemical
Source text: Because nondegradable substrates often act as competitive inhibitors, the inventors tested whether E2-IsoK adducted proteins would inhibit proteasome chymotrypsin-like activity as measured by hydrolysis of a fluorogenic substrate, LLVY-amc.

ovalbumin (OVA) = ovalbumin (OVA) (Gallus gallus, UniProt P01012); experiment: Protein cross-linking after incubation with ovalbumin; assay type: biochemical; conditions: 10 molar equivalents, about 4 hours
Chain of ovalbumin (OVA) (P01012 whole entry, species assumed): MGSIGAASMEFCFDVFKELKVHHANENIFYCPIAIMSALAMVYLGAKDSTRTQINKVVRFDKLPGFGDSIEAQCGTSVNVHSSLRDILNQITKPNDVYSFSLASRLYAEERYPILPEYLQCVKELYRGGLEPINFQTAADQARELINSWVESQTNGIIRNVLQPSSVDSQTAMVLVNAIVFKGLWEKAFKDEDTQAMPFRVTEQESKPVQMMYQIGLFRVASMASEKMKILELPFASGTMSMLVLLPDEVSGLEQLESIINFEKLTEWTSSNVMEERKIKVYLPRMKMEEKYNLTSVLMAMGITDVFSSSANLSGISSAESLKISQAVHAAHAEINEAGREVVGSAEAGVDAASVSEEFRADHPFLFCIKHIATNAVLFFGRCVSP
Source text: The above findings explained why repeated attempts in the past to detect free IsoKs during oxidation of biological systems in vitro, e.g. microsomes, and in animal models of oxidant injury in vivo were unsuccessful because they are rapidly sequestered as protein adducts. Therefore, the present inventors undertook to determine the identity of IsoK lysyl adducts as a basis for development of methodology to detect IsoK and NeuroK adducts in biological tissues in their adducted form. […] Reversible Schiff base adducts were also identified. Schiff base adducts are formed rapidly and then decline over time, whereas lactam adducts accumulate slowly over time. Lysyl protein adducts of IsoKs and NeuroKs are analyzed by LC/MS/MS following enzymatic digestion of proteins to individual amino acids. Enzymatic digestion of proteins is necessary because the adducts degrade during acid hydrolysis. However, this analysis is further complicated by the proclivity of IsoKs and NKs to induce protein crosslinking, which is resistant to hydrolysis. […] This is a dramatic example of the differential effects of IsoKs/NKs and HNE on protein adduction and cross-linking.

bovine serum albumin = bovine serum albumin (Bos taurus, UniProt P02769); experiment: Disappearance of free IsoK and HNE during incubation with bovine serum albumin (rate of adduction); assay type: biochemical; conditions: after 80 minutes
Chain of bovine serum albumin (P02769 25-607): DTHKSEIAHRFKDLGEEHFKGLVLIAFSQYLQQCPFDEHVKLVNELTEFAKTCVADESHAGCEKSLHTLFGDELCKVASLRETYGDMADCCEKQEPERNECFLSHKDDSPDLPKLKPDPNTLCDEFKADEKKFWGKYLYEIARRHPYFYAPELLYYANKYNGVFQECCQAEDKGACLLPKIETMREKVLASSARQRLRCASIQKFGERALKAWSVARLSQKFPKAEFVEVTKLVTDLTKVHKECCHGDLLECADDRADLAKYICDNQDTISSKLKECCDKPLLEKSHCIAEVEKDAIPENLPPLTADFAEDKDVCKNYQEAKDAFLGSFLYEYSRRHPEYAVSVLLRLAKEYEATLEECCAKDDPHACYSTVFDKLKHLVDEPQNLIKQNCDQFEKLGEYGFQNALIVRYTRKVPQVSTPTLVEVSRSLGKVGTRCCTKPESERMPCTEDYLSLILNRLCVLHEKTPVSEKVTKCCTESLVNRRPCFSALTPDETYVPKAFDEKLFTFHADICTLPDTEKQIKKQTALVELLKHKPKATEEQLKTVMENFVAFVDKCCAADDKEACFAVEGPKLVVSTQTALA
Experimental: Oxidation of AA in vitro produces both F2-IsoPs and IsoKs in nearly equivalent amounts. However, comparison of the formation of F2-IsoPs and IsoKs in vivo is more complex, because IsoKs rapidly adduct to lysyl residues on proteins. […] In striking contrast, approximately 50% of the HNE still remained in free form after 80 minutes.

proteasome = experiment: Hydrolysis of fluorogenic substrate VKM-amc by proteasome containing cell lysates; assay type: biochemical; conditions: equimolar adduction of VKM-amc

Compound: NCCO [2-aminoethanol]
- approximate second order rate constants for pyrrole formation [1]: 3.1e+08 M⁻¹ s⁻¹

Compound: F2-isoprostane
- V1/2 voltage-dependence of inactivation (availability) [2]: −91.4±1.8 mV

Compound: COc1ccc(C(=O)Nc2ccccc2CCC2CCCCN2C)cc1 (centres unmarked) [encainide]
- mortality increase [3]: three-fold

Compound: CC1(C)CC(O)CC(C)(C)N1[O] [Tempol]
- increase in plasma levels of F2-IsoPs [4]: completely ablated this increase
- increase in levels of F2-IsoPs in renal vein plasma [5]: completely prevented the increase

Compound: IsoK(10)-OVA: ovalbumin adducted with ten molar equivalents of E2-IsoK
- degradation by purified 20S proteasome (20S proteasome [6]): completely blocked its degradation

Compound: NCc1ccc(O)cc1 [4-SA, 4-salicylamine]
- scavenging γ KAs [1]: inactive

Compound: NCc1ccccc1O [SA, salicylamine]
- levels of F2-IsoP formed [7]: None of the three scavengers reduced
- selectivity for γ KA products over other lipid peroxidation products [7]: relatively selectively
- levels of Lys-lactam adduct formed [7]: markedly reduced
- memory performance (latency, Z-score) [8]: significantly improved the performance
- memory performance (latency, Z-score) ([8]; listed as salicylamine): improves memory
- lipophilicity / penetration into nonpolar environments [9]: readily dissolve into ethyl acetate; also recorded: most lipophilic scavenger
- protection of cellular viability (HepG2 cell): best protection
- scavenging γ KAs [1]: very good at scavenging
- systolic function, fractional LV shortening (FS) by echocardiography ([10]; 1 g/l in drinking water, 7 days post MI): improved systolic function
- Lys-lactam protein adducts in infarct and peri-infarct borderzone ([10]; 7 days after coronary ligation): appears to prevent the adduct formation
- infarct size ([10]; hearts harvested 7 days after coronary ligation): significantly reduced infarct size
- survival after MI ([10]; p=0.1): trend towards increased survival
- tolerability of the dosing regimen ([11]; 1 g/l in drinking water): well tolerated
- oral bioavailability ([11]; mouse, in vivo, po): orally bioavailable

Compound: IsoK(1)-OVA: ovalbumin adducted with equimolar E2-IsoK
- degradation by purified 20S proteasome (20S proteasome [6]): nearly in half

Compound: pentylpyridoxamine [PPM]
- levels of F2-IsoP formed [7]: None of the three scavengers reduced
- selectivity for γ KA products over other lipid peroxidation products [7]: relatively selectively; also recorded: most selective
- levels of Lys-lactam adduct formed [7]: markedly reduced
- protection of cellular viability (HepG2 cell): slightly less protection
- scavenging γ KAs [1]: very good at scavenging

Compound: vitamin E
- effect to slow the progression of the disease (progression of AD): modest effect
- reduction of F2-IsoP levels ([12]; 800 I.U./d, 18 weeks): about 10%
- maximum suppression of plasma F2-IsoPs ([12]; 3200 I.U./d, 18 weeks): 49%
- effect on F2-IsoP levels ([12]; doses below 800 I.U./d, 18 weeks): no significant effect
- supplementation required to reach the plateau in maximum suppression of plasma F2-IsoPs ([12]; human, in vivo): sixteen

Compound: IsoK-Aβ1-40: Aβ1-40 adducted with E2-IsoK
- IC50 (20S proteasome [13]): 1300 nM

Compound: CCCCCC(O)/C=C/C=O (centres unmarked) [HNE, 4-hydroxynonenal]
- V1/2 voltage-dependence of inactivation (availability) [2]: −83.7±2.1 mV
- cross-linking of ovalbumin (ovalbumin (OVA)): no cross-linking was observed
- remained in free form (bovine serum albumin): approximately 50%
- hydrolysis of the adducted peptide by proteasome containing cell lysates (proteasome): no effect on hydrolysis

Compound: Cc1ncc(CO)c(CN)c1O [PM, pyridoxamine]
- lipophilicity / penetration into nonpolar environments [9]: quite hydrophilic; also recorded: poorly penetrates into nonpolar environments
- protection of cellular viability (HepG2 cell): no significant protection

Compound: CC(=O)N[C@@H](CCCCN)C(=O)O [N^αacetyllysine]
- approximate second order rate constants for pyrrole formation [1]: 7e+07 M⁻¹ s⁻¹

Compound: NCc1ccncc1 [4-picolinylamine]
- approximate second order rate constants for pyrrole formation [1]: 0.0011 M⁻¹ s⁻¹
